In patent US20250369975A1, “METHOD FOR DETECTING TRANSTHYRETIN TETRAMER, AND METHOD FOR EVALUATING STABILITY” (SYSMEX CORPORATION, priority 2024, published 2025):
Like-named read-outs stand apart in the source and are kept apart here.

Legend:
Type in all cases: binding
[1] = target: T1, TTR tetramer (wild-type recombinant human transthyretin) (Homo sapiens, UniProt P02766); test: Example 5: HISCL-5000 automated immunoassay, tagged probe, streptavidin magnetic particle, ALP-labeled monoclonal anti-TTR antibody; settings: R1 reagent 0.3 μM probe; WT TTR 10 and 100 μg/mL; FIG. 21B
T1 construct: purchased AlexoTech T-500-10
Protocol: A sample containing wild-type (WT) recombinant TTR at respective concentrations of 10 μg/mL and 100 μg/mL was prepared by diluting transthyretin (wild-type) human, recombinant (AlexoTech, T-500-10) with 1% BSA/0.5% casein/PBS.
(2.1) R1 reagent As R1 buffer, a […] buffer (pH 8.0±0.05) containing 1% BSA, 0.15 g/L mouse IgG, 0.1% sodium azide, […], 0.1% Tween® 20 and 20 mg/mL alkaline phosphatase (AP) mutein was prepared. Probe C5 was diluted with R1 buffer, to prepare R1 reagent (0.1 μM) containing probe C5. Probe C6 was also diluted with R1 buffer, to prepare R1 reagent (0.3 μM) that contains probe C6.
As R3 buffer, a 0.1 mol/L HEPES buffer (pH 8.0±0.05) containing 1% BSA, 0.15 g/L murine IgG, 0.1% sodium azide, 0.15 mol/L NaCl, 0.1% Tween20.20 mg/mL AP mutein, 1.0 mmol/L MgCl, and 0.1 mmol/L ZnCl of 2 was prepared. An ALP-labeled monoclonal anti-TTR antibody was used as the labeled antibody capable of binding to the TTR monomer. […]
50 μL of each R1 reagent was added to the cuvette, to which 30 μL of the sample was then added, followed by incubation for 2.5 minutes. […] Five minutes later, the chemiluminescence signal was measured with HISCL-5000. As a control (blank), the sample was similarly measured with use of 30 μL of 1% BSA/0.5% casein/PBS instead of the sample. […]

[2] = tested on: TTR tetramer (recombinant human transthyretin WT, T119M, V30M); settings: probe solution 0.2 μM mixed with sample; FIG. 18A-B
[3] = tested on: TTR tetramer (recombinant human transthyretin WT, T119M, V30M); settings: probe solution 10 μM; recombinant TTR 100 ng/mL; FIG. 14A-D
[4] = target: T2, TTR tetramer in blood sample (serum, plasma) (Homo sapiens, UniProt P02766); test: Example 2: same format, serially diluted serum and plasma samples; settings: probe immobilized on solid phase
T2 construct: serially diluting commercially available serum (ProMedex Corporation, 12011378); tissue ProMedex Corporation (serum); host or cells: serum and plasma mix
Protocol: (§1) (1.2) Blood sample Six serum samples were prepared by serially diluting commercially available serum (ProMedex Corporation, 12011378) with 1% BSA/0.5% casein/PBS. Also six plasma samples were prepared by serially diluting a commercially available plasma mix with 1% BSA/0.5% casein/PBS.
The sample containing the recombinant TTR and the blood sample were the same as in Example 1. Probes C5 and C6 were diluted with 1% BSA/0.5% casein/PBS, to prepare a probe solution (0.3 μM). An ALP-labeled polyclonal anti-TTR antibody is used as the labeled antibody capable of binding to the TTR monomer. The labeled antibody was prepared by labeling a polyclonal rabbit anti-human prealbumin antibody (Agilent, A0002) with ALP by a usual method. […]
To each well of the plate, 300 μL of a blocking solution (1% BSA/0.5% casein/PBS) was added, followed by incubation for 1 hour at room temperature. […] 100 μL of a substrate solution of ALP was added to each well, and after 15 minutes, a chemiluminescence signal was measured with a plate reader. The samples were measured twice, and an average value of the two measured values was acquired. Results of measurement of the sample that contains the recombinant TTR are illustrated in FIGS. 16A and B. Measured results of the blood samples are illustrated in FIGS. 17A to D.

[5] = tested on: TTR tetramer (recombinant human transthyretin WT, T119M, V30M); settings: probe solution 0.3 μM immobilized on solid phase; recombinant TTR 100 ng/mL; FIG. 16A-B
[6] = target: T3, TTR tetramer in plasma sample (Homo sapiens, UniProt P02766); test: Example 3: same format, serially diluted plasma samples; settings: probe solution 0.2 μM, FIG. 19B
T3 construct: serially diluting commercially available serum (ProMedex Corporation, 12011378); tissue ProMedex Corporation (serum); host or cells: serum and plasma mix
Protocol: as §1
The sample containing the recombinant TTR and the plasma sample were the same as in Example 1. Probes C5 and C6 were diluted with 1% BSA/0.5% casein/PBS, to prepare a probe solution (0.2 μM). The same ALP-labeled polyclonal anti-TTR antibody as in Example 2 was diluted 3200 times with 1% BSA/0.1% goat IgG/0.01% mouse IgG/0.005% scavenger ALP/PBS, to prepare a labeled antibody solution. The substrate solution and solid phase of ALP were the same as those in Example 2.
150 μL of each sample and 150 μL of the probe solution were mixed, and incubated at room temperature for 1 hour. As a control (blank), instead of the sample, 150 μL of 1% BSA/0.5% casein/PBS and 150 μL of the probe solution were mixed, and incubated in the same manner. […] 100 μL of a substrate solution of ALP was added to each well, and after 15 minutes, a chemiluminescence signal was measured with a plate reader. The samples were measured twice, and an average value of the two measured values was acquired. […]

Structure (SMILES): O=C(CCCCC1SCC2NC(=O)NC21)NCCOCCOCCOCCOCCOCCOCCOCCOCCOCCOCCOCCOCCC(=O)Nc1ccc(/C=C/c2cc(Br)c(O)c(Br)c2)cc1 (stereo not shown) [Probe C6, Biotin-PEG12-Stilbene Derivative]
- signal measured value versus level of recombinant TTR in the sample [1]: increased corresponding to the level of the recombinant TTR in the sample
- chemiluminescence signal measured values of WT, T119M and V30M samples versus blank [2]: a result similar to that of FIG. 18 A
- chemiluminescence signal measured values of WT, T119M and V30M samples versus blank [3]: results similar to those of FIG. 14 A
- signal measured value of the plasma sample versus dilution factor ([4]; serially diluted plasma, FIG. 17D): similarly increased according to the dilution factor
- signal measured value of the serum sample versus dilution factor ([4]; serially diluted serum, FIG. 17C): increased according to the dilution factor
- chemiluminescence signal measured values of WT, T119M and V30M samples versus blank [5]: a result similar to that of FIG. 16 A
- signal measured value of the plasma sample versus dilution factor [6]: increased according to the dilution factor
